Reference: US11452764B2, “Inhibiting FAK-AKT interaction to inhibit metastasis” (Board of Trustees of Michigan State University, priority 2017, dated 2022)
Entries after “also recorded” stand apart in the source; their conditions may differ.

Test system: FAK-Tyr-397 phosphorylation
Test: FAK-Y397 western blotting in suspended SW620 cells at ambient or 15 mmHg increased pressure (ZINC compounds)
Assay type: cell-based, human
Details: for Pressure stimulation of FAK-pTyr397 / Basal FAK-pTyr397: concentrations studied: ZINC31501681 1 pM-300 μM, ZINC58264388 1 nM-100 nM, ZINC40099027 10 pM-10 nM, ZINC25613745 1 nM
Description: Extracellular pressure was increased by 15 mmHg over ambient pressure using a temperature and pressure-controlled box as described by Basson et al. (J Cell Biochem, 78: 47-61 (2000)).
Cells were maintained at ambient or increased pressure in bacteriologic plastic dishes pacificated with heat-inactivated bovine serum albumin to prevent adhesion and avoid adhesion-associated background FAK activation. Cells were lysed in lysis buffer, resolved by 10% SDS-PAGE, transferred to nitrocellulose and blotted with antibody to Tyr-397-phosphorylated FAK (rabbit monoclonal ab81298, Abcam, San Francisco, Calif., USA) and anti-rabbit 680 (LI-COR Inc. Lincoln, Nebr., USA), before quantitation using Kodak Scientific Imaging Systems 1D, V.3.5.4 (Zeng et al., Oncotarget, 8 98051-98067 (2017)). Total FAK (Anti-FAK, clone 4.47 Merck, Darmstadt, Germany with secondary anti-mouse 800, LI-COR Inc. Lincoln, Nebr., USA) served as a loading control. FAK and Tyr-397-phosphorylated FAK western blots yielded doublets similar to those previously observed by others (McConnell et al. Mol Cancer 10: 75 (2011); Aflaki et al. Cell Mol Life Sci, 68: 3933-3947 (2011)); Das et al. Cancer Res, 72: 6217-6226 (2012); Ammoun et al. Oncogene, 31: 1710-1722 (2012)). Both bands were quantitated together.
Four structurally similar molecules to the FAK-derived sequence LAHPP (SEQ ID NO:25) (Table 2) were evaluated for their ability to prevent FAK activation by 15 mmHg increased extracellular pressure in human SW620 colon cancer cells. […] The structures of these compounds are shown below (and in FIG. 17).

[1] = SW620, 15 mmHg increased pressure

SMILES	Pressure stimulation of FAK-pTyr397 [1]	Basal FAK-pTyr397 (SW620, ambient pressure)	Phosphorylation of FAK-Tyr-397 at ambient pressure (pFAKY397/FAK) (suspended SW620, 1-100 pM, 30 minutes, vs 0.1% DMSO, five experiments, p≤0.05)	Concentrations at which there was no further increase of FAK-pTyr397 by pressure [1]	Concentrations at which basal FAK-pTyr397 was increased (SW620, ambient pressure)
O=C(N[C@@H](CC(=O)N1CCC[C@H]1c1nnc2ccccn12)c1ccccc1)c1ccccc1 [ZINC31501681]	prevented a further pressure-induced increase in FAK-Tyr-397 phosphorylation	increased basal FAK-Tyr-397 phosphorylation	enhances the phosphorylation of FAK-Tyr-397	–	–
C=C(Cl)/C(=C\C)[C@H](CC(=O)N1CCC[C@H]1c1ccc(OC)c(OC)c1)NC(N)=O [ZINC25613745]	affected neither basal nor pressure-stimulated FAK-Tyr-397 phosphorylation; also recorded: Maintained	affected neither basal nor pressure-stimulated FAK-Tyr-397 phosphorylation; also recorded: No change	–	–	–
Cc1ccccc1[C@@H]1CCCN1C(=O)C[C@H](NC(N)=O)c1cccs1 [ZINC58264388]	prevented a further pressure-induced increase in FAK-Tyr-397 phosphorylation	increased basal FAK-Tyr-397 phosphorylation	–	(10-100 nM)	(10-100 nM)
COc1ccc([C@@H]2CCCN2C(=O)Nc2cc(C(F)(F)F)ccc2N2CCOCC2)cc1 [ZINC40099027]	prevented a further pressure-induced increase in FAK-Tyr-397 phosphorylation	increased basal FAK-Tyr-397 phosphorylation	–	–	–
